molecular target: T1, recombinant human mPGES-1 (Homo sapiens, UniProt O14684); test: mPGES-1 HTRF assay (inhibition of PGE2 formation from PGH2); format: biochemical; conditions: compound concentration of 10 μM, HTRF assay; read-out: % inhibition
T1 construct: made in house; host or cells: Rosetta E. coli (membrane/microsome fraction)
T1 sequence (O14684 1-152): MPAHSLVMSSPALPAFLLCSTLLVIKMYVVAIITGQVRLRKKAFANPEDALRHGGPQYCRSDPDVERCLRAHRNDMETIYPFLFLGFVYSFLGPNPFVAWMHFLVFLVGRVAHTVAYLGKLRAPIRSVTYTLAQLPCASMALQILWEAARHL
Method: The basis of the assay used is to measure the inhibition of microsomal prostaglandin E2 synthase-1 (mPGES-1) dependent prostaglandin (PG) E2 formation from PGH2 by different compounds. Thus, the formation of PGE2 is used as signal and a lowering of this signal can be interpreted as inhibition of mPGES-1. […] Microsomes from Rosetta E. coli bacteria expressing recombinant human mPGES-1 can be derived as described below: Inoculate 5 ml LB with Amp and Chloro with bacteria from freeze culture. Incubate over night at 37° C. with 200 rpm. Thereafter, inoculate 500-800 ml LB containing Amp and Chloro with the 5 ml on culture and grow to OD640 of 0.6-0.8. Chill the culture to +4° C. before induction. Induce the culture with IPTG at a final concentration of 400 μM. Express the protein at room temp 18-23° C. with 200 rpm shaking over night. The following steps can be performed on the following day: • 1. Spin down the cells in 250 ml centrifuge flasks for 15 min at 7000 rpm • 2. Dissolve the pellet from 250 ml culture in 12.5 ml homogenization buffer • 3. Disintegrate the cells by sonication, 4×10 seconds at 35% amplitude • 4. Add 2.5 ml MgCl2 (100 mM) and DNase 12.5 μl (0.8 mg/ml) and incubate on ice for 30 min • 5. Spin down the bacteria debris and save the supernatant, 7000 rpm for 15 min • 6. Isolate the protein containing membranes in the supernatant by ultracentrifugation 45000×g for 1 hour. • 7. Discard the supernatant and dissolve the pellet in 20 mM KPi buffer and aliquot the enzyme and store aliquots at −80° C. Before each experiment is performed an aliquot of the enzyme is thawed and it can then be dissolved in 0.1 M KPi pH 7.4 buffer containing 2.5 mM GSH. 50 μl of this enzyme solution is subsequently dispensed in a 384-well plate at room temperature. 0.5 μl of the inhibitor dissolved in DMSO is thereafter added to each well and incubated for 25 minutes at room temperature. Subsequently, 2 μl of PGH2 dissolved in an appropriate solvent is added to each well and after one minute at room temperature, the acidified stop solution containing FeCl2 is added. 4 μl of the total volume is transferred to a separate plate and diluted 750-fold in two separate steps before quantification of PGE2. In order to quantitate the amount of PGE2 that has been formed, a homogenous time resolved fluorescent (HTRF) detection of PGE2 can be performed by the use of a commercially available kit from CisBio essentially according to the manufacturer's protocol. […] The sealing film is thereafter removed from the NC wells. • 5 μl Eu3+-cryptate labeled anti-PGE2 can now be added to rows 1 to 24 by using a Multidrop. • The plate can now be covered with sealing film. • The plate can now be centrifuge at 1200 rpm for 1 minute and place at 4° C. overnight. After the over night incubation the fluorescence is measured by the use of an appropriate microplate reader. […] The extent of the specific HTRF is measured as a ratio of the emission intensity at 665 nm vs. that at 620 nm. A standard curve using synthetic PGE2 is used to quantify the amount of PGE2 in unknown samples. The degree of inhibition can be calculated as percent inhibition by dividing the amount of PGE2 formed in unknown samples by the amount of PGE2 formed in control samples.

| Compound | inhibition at 10 µM |
| --- | --- |
| CN(C1CCCC1)S(=O)(=O)c1ccc2c(c1)nc(Nc1cc(CNC(=O)C3(C)CCCCC3)ccc1Cl)n2C [Example 26, N-{4-Chloro-3-[5-(N-cyclopentyl-N-methylsulfamoyl)-1-methyl-2-benzimidazolylamino]benzyl}-1-methylcyclohexylamide] | 100% |
| Cn1c(Nc2cc(CNC(=O)c3c(F)cccc3Cl)ccc2Cl)nc2cc(C(=O)NCC3CCCCC3)ccc21 [Example 27, 2-{2-Chloro-5-[(2-chloro-6-fluorobenzamido)methyl]phenylamino}-N-cyclohexylmethyl-1-methylbenzimidazole-5-carboxamide] | 100% |
| Cn1c(Nc2cc(CNC(=O)C3CCCO3)ccc2Cl)nc2cc(C(=O)NCC3CCCCC3)ccc21 (stereo not drawn) [Example 28, 2-{2-Chloro-5-[(2-tetrahydrofurylamido)methyl]phenylamino}-N-cyclohexylmethyl-1-methylbenzimidazole-5-carboxamide] | 100% |
| Cn1c(Nc2cc(CNC(=O)C3(C(F)(F)F)CC3)ccc2Cl)nc2cc(C(=O)NCC3CCCCC3)ccc21 [Example 30, 2-{2-chloro-5-[(1-trifluoromethylcyclopropylamido)methyl]phenyl-amino}-N-cyclohexylmethyl-1-methylbenzimidazole-5-carboxamide] | 98% |
| Cn1c(Nc2cc(CNC(=O)C3(C)CCCC3)ccc2Cl)nc2cc(C(=O)NCC3CCCCC3)ccc21 [Example 31, 2-{2-Chloro-5-[(1-methylcyclopentylamido)methyl]phenylamino}-N-cyclohexylmethyl-1-methylbenzimidazole-5-carboxamide] | 99% |
| CC(=O)NCc1ccc(Cl)c(Nc2nc3cc(C(=O)NCC4CCCCC4)ccc3n2C)c1 [Example 32, 2-[5-(Acetamidomethyl)-2-chlorophenylamino]-N-cyclohexylmethyl-1-methylbenzimidazole-5-carboxamide] | 98% |
| Cn1c(Nc2cc(CNC(=O)OC(C)(C)C)ccc2Cl)nc2cc(C(=O)NCC3CCCCC3)ccc21 [Example 33] | 93% |
| Cn1c(Nc2cc(CNC(=O)C3CCC(F)(F)CC3)ccc2Cl)nc2cc(C(=O)Nc3ccc(Br)cc3)ccc21 [Example 35, N-(4-Bromophenyl)-2-{2-chloro-5-[(4,4-difluorocyclohexylamido)-methyl]phenylamino]-1-methylbenzimidazole-5-carboxamide] | 100% |
| Cn1c(Nc2cc(CNC(=O)c3c(F)cccc3Cl)ccc2Cl)nc2cc(C(=O)Nc3ccc(Br)cc3)ccc21 [Example 36, N-(4-Bromophenyl)-2-{2-chloro-5-[(2-chloro-6-fluorobenzamido)methyl]phenylamino}-1-methylbenzimidazole-5-carboxamide] | 100% |
| Cn1c(Nc2cc(CNC(=O)[C@@H]3C[C@H]3c3ccccc3)ccc2Cl)nc2cc(C(=O)Nc3ccc(Br)cc3)ccc21 [Example 39, N-(4-Bromophenyl)-2-{2-chloro-5-[(trans-2-phenylcyclopropylamido)-methyl]phenylamino}-1-methylbenzimidazole-5-carboxamide] | 100% |
| Cn1c(Nc2cc(CNC(=O)C3(C#N)CCCC3)ccc2Cl)nc2cc(C(=O)Nc3ccc(Br)cc3)ccc21 [Example 42, N-(4-Bromophenyl)-2-{2-chloro-5-[(1-cyanocyclopentylamido)methyl]-phenylamino}-1-methylbenzimidazole-5-carboxamide] | 100% |
| Cn1c(Nc2cc(CNS(=O)(=O)c3cccs3)ccc2Cl)nc2cc(C(=O)Nc3ccc(Br)cc3)ccc21 [Example 44, N-(4-Bromophenyl)-2-{2-chloro-5-[(2-thienylsulfonamido)methyl]phenylamino}-1-methylbenzimidazole-5-carboxamide] | 100% |
| Cn1c(Nc2cc(CNC(=O)C3(CC4CC4)CCCC3)ccc2Cl)nc2cc(C(=O)Nc3ccc(Br)cc3)ccc21 [Example 48, N-(4-Bromophenyl)-2-{2-chloro-5-[(1-cyclopropylmethylcyclopentyl-amido)methyl]phenylamino}-1-methylbenzimidazole-5-carboxamide] | 100% |

Other lines, results leading:

| inhibition at 10 µM | Compound |
| --- | --- |
| 100% | Cn1c(Nc2cc(CNC(=O)OC(C)(C)C)ccc2Cl)nc2cc(C(=O)Nc3ccc(Br)cc3)ccc21 [Example 34, tert-Butyl 3-[5-(4-bromophenylcarbamoyl)-1-methyl-2-benzimidazolylamino]-4-chlorobenzylcarbamate] |
| 100% | Cn1c(Nc2cc(CNC(=O)C3(C(F)(F)F)CC3)ccc2Cl)nc2cc(C(=O)Nc3ccc(Br)cc3)ccc21 [Example 37, N-(4-Bromophenyl)-2-{2-chloro-5-[(1-trifluoromethylcyclopropylamido)methyl]phenylamino}-1-methylbenzimidazole-5-carboxamide] |
| 100% | Cn1c(Nc2cc(CNC(=O)C3(C#N)CC3)ccc2Cl)nc2cc(C(=O)Nc3ccc(Br)cc3)ccc21 [Example 38, N-(4-Bromophenyl)-2-{2-chloro-5-[(1-cyanocyclopropylamido)methyl]-phenylamino}-1-methylbenzimidazole-5-carboxamide] |
| 98% | Cn1c(Nc2cc(CNC(=O)C3(C)COC3)ccc2Cl)nc2cc(C(=O)Nc3ccc(Br)cc3)ccc21 [Example 40, N-(4-Bromophenyl)-2-{2-chloro-5-[(3-methyl-3-oxetanylamido)methyl]-phenylamino}-1-methylbenzimidazole-5-carboxamide] |
| 100% | Cn1c(Nc2cc(CNC(=O)C3(C)CCCC3)ccc2Cl)nc2cc(C(=O)Nc3ccc(Br)cc3)ccc21 [Example 41, N-(4-Bromophenyl)-2-{2-chloro-5-[(1-methylcyclopentylamido)methyl]-phenylamino}-1-methylbenzimidazole-5-carboxamide] |
| 100% | CC(=O)NCc1ccc(Cl)c(Nc2nc3cc(C(=O)Nc4ccc(Br)cc4)ccc3n2C)c1 [Example 43, 2-[5-(Acetamidomethyl)-2-chlorophenylamino]-N-(4-bromophenyl)-1-methylbenzimidazole-5-carboxamide] |
| 100% | Cn1c(Nc2cc(CNS(=O)(=O)C3CC3)ccc2Cl)nc2cc(C(=O)Nc3ccc(Br)cc3)ccc21 [Example 45, N-(4-Bromophenyl)-2-{2-chloro-5-[(cyclopropylsulfonamido)methyl]-phenylamino}-1-methylbenzimidazole-5-carboxamide] |
| 100% | CCC1(C(=O)NCc2ccc(Cl)c(Nc3nc4cc(C(=O)Nc5ccc(Br)cc5)ccc4n3C)c2)CCCC1 [Example 46, N-(4-Bromophenyl)-2-{2-chloro-5-[(1-ethylcyclopentylamido)methyl]-phenylamino}-1-methylbenzimidazole-5-carboxamide] |
| 100% | CSC1(C(=O)NCc2ccc(Cl)c(Nc3nc4cc(C(=O)Nc5ccc(Br)cc5)ccc4n3C)c2)CCCC1 [Example 47, N-(4-Bromophenyl)-2-{2-chloro-5-[(1-methylthiocyclopentylamido)-methyl]phenylamino}-1-methylbenzimidazole-5-carboxamide] |
| 100% | Cn1c(Nc2cc(CNC(=O)C3(C)CCCO3)ccc2Cl)nc2cc(C(=O)Nc3ccc(Br)cc3)ccc21 (stereo not drawn) [Example 49, N-(4-Bromophenyl)-2-{2-chloro-5-[(2-methyl-2-tetrahydrofurylamido)-methyl]phenylamino}-1-methylbenzimidazole-5-carboxamide] |
| 100% | Cn1c(Nc2cc(CNC(=O)C3(CN)CC3)ccc2Cl)nc2cc(C(=O)Nc3ccc(Br)cc3)ccc21 [Example 50, 2-(5-{[1-(Aminomethyl)cyclopropylamido]methyl}-2-chlorophenylamino)-N-(4-bromophenyl)-1-methylbenzimidazole-5-carboxamide] |

Reference: patent US8921405B2, “Compounds” (Orexo AB, priority 2009, dated 2014)
